Data as given in US20050159427A1, “N-acylsulfonamide apoptosis promoters” (priority 2003, published 2005).

Tests used:
T47D = experiment: Tumor cell viability (TABLE 1); type: cell-based; conditions: Homo sapiens, read-out: EC50 (50% reduction in cell viability); T47D (Breast); serum-free conditions, 48 hour treatment
MALME-3M = experiment: Tumor cell viability (TABLE 1); type: cell-based; conditions: Homo sapiens, read-out: EC50 (50% reduction in cell viability); MALME-3M (Melanoma); serum-free conditions, 48 hour treatment; mean ± SEM
OVCAR-8 = experiment: Tumor cell viability (TABLE 1); type: cell-based; conditions: Homo sapiens, read-out: EC50 (50% reduction in cell viability); OVCAR-8 (Ovarian); serum-free conditions, 48 hour treatment; mean ± SEM
RXF-393 = experiment: Tumor cell viability (TABLE 1); type: cell-based; conditions: Homo sapiens, read-out: EC50 (50% reduction in cell viability); RXF-393 (Renal); serum-free conditions, 48 hour treatment; mean ± SEM
[1] = test system: human tumor cell lines derived from small cell lung carcinomas and lymphoid malignancies of both T-cell and B-cell origin; conditions: small cell lung carcinoma and T-cell / B-cell lymphoid malignancy cell lines
A549/ATCC = experiment: Tumor cell viability (TABLE 1); type: cell-based; conditions: Homo sapiens, read-out: EC50 (50% reduction in cell viability); A549/ATCC (Non-Small Cell Lung); serum-free conditions, 48 hour treatment; mean ± SEM
SW-620 = experiment: Tumor cell viability (TABLE 1); type: cell-based; conditions: Homo sapiens, read-out: EC50 (50% reduction in cell viability); SW-620 (Colorectal); serum-free conditions, 48 hour treatment; mean ± SEM
SN12C = experiment: Tumor cell viability (TABLE 1); type: cell-based; conditions: Homo sapiens, read-out: EC50 (50% reduction in cell viability); SN12C (Renal); serum-free conditions, 48 hour treatment; mean ± SEM
Calu-6 = experiment: Tumor cell viability (TABLE 1); type: cell-based; conditions: Homo sapiens, read-out: EC50 (50% reduction in cell viability); Calu-6 (Non-Small Cell Lung); serum-free conditions, 48 hour treatment; mean ± SEM
U251 = experiment: Tumor cell viability (TABLE 1); type: cell-based; conditions: Homo sapiens, U-251, read-out: EC50 (50% reduction in cell viability); U251 (CNS); serum-free conditions, 48 hour treatment; mean ± SEM
RS11380 = RS11380 model of B-cell follicular lymphoma; type: in vivo
NCI-H226 = experiment: Tumor cell viability (TABLE 1); type: cell-based; conditions: Homo sapiens, read-out: EC50 (50% reduction in cell viability); NCI-H226 (Non-Small Cell Lung); serum-free conditions, 48 hour treatment; mean ± SEM
OVCAR-5 = experiment: Tumor cell viability (TABLE 1); type: cell-based; conditions: Homo sapiens, read-out: EC50 (50% reduction in cell viability); OVCAR-5 (Ovarian); serum-free conditions, 48 hour treatment; mean ± SEM
[2] = test system: DoHH2 follicular lymphoma flank tumors; experiment: DoHH2 follicular lymphoma model; type: in vivo
MCF7 = experiment: Tumor cell viability (TABLE 1); type: cell-based; conditions: Homo sapiens, read-out: EC50 (50% reduction in cell viability); MCF7 (Breast); serum-free conditions, 48 hour treatment; mean ± SEM
HOP-62 = experiment: Tumor cell viability (TABLE 1); type: cell-based; conditions: Homo sapiens, read-out: EC50 (50% reduction in cell viability); HOP-62 (Non-Small Cell Lung); serum-free conditions, 48 hour treatment; mean ± SEM
SF-268 = experiment: Tumor cell viability (TABLE 1); type: cell-based; conditions: Homo sapiens, read-out: EC50 (50% reduction in cell viability); SF-268 (CNS); serum-free conditions, 48 hour treatment; mean ± SEM
PC3 = experiment: Tumor cell viability (TABLE 1); type: cell-based; conditions: Homo sapiens, PC-3, read-out: EC50 (50% reduction in cell viability); PC3 (Prostate); serum-free conditions, 48 hour treatment; mean ± SEM
KM12 = experiment: Tumor cell viability (TABLE 1); type: cell-based; conditions: Homo sapiens, read-out: EC50 (50% reduction in cell viability); KM12 (Colorectal); serum-free conditions, 48 hour treatment; mean ± SEM
HT-29 = experiment: Tumor cell viability (TABLE 1); type: cell-based; conditions: Homo sapiens, read-out: EC50 (50% reduction in cell viability); HT-29 (Colorectal); serum-free conditions, 48 hour treatment; mean ± SEM
H146 = H146 small cell lung cancer murine model; type: in vivo
Description: (H146 and SCLC xenograft) from human-derived small cell lung cancer isolated from smokers and nonsmokers, defective for Rb/p53 gene function, and expresseive of moderately high levels of Bcl-2.

MDA-MB-436 = experiment: Tumor cell viability (TABLE 1); type: cell-based; conditions: Homo sapiens, read-out: EC50 (50% reduction in cell viability); MDA-MB-436 (Breast); serum-free conditions, 48 hour treatment; mean ± SEM
COLO 205 = experiment: Tumor cell viability (TABLE 1); type: cell-based; conditions: Homo sapiens, read-out: EC50 (50% reduction in cell viability); COLO 205 (Colorectal); serum-free conditions, 48 hour treatment; mean ± SEM
DLD-1 = experiment: Tumor cell viability (TABLE 1); type: cell-based; conditions: Homo sapiens, read-out: EC50 (50% reduction in cell viability); DLD-1 (Colorectal); serum-free conditions, 48 hour treatment; mean ± SEM
OVCAR-3 = experiment: Tumor cell viability (TABLE 1); type: cell-based; conditions: Homo sapiens, read-out: EC50 (50% reduction in cell viability); OVCAR-3 (Ovarian); serum-free conditions, 48 hour treatment; mean ± SEM
D54MG = experiment: Tumor cell viability (TABLE 1); type: cell-based; conditions: Homo sapiens, read-out: EC50 (50% reduction in cell viability); D54MG (Glioma); serum-free conditions, 48 hour treatment; mean ± SEM
[3] = established flank tumors, sustained period of time

CN(C)CC[C@H](CSc1ccccc1)Nc1ccc(S(=O)(=O)NC(=O)c2ccc(N3CCN(Cc4ccccc4-c4ccc(Cl)cc4)CC3)cc2)cc1[N+](=O)[O-] [EXAMPLE 2, N-(4-(4-((4′-chloro(1,1′-biphenyl)-2-yl)methyl)piperazin-1-yl)benzoyl)-4-(((1R)-3-(dimethylamino)-1-((phenylsulfanyl)methyl)propyl)amino)-3-nitrobenzenesulfonamide]
EC50 (T47D): > 10000 nM
EC50 (MALME-3M): 1900 ± 800 nM
EC50 (OVCAR-8): 3400 ± 800 nM
EC50 (RXF-393): 2900 ± 400 nM
therapeutic utility against human tumor cell lines [1]: displayed therapeutic utility
EC50 (A549/ATCC): 5200 ± 200 nM
EC50 (SW-620): 690 ± 70 nM
EC50 (SN12C): 3200 ± 200 nM
EC50 (Calu-6): 180 ± 70 nM
EC50 (U251): 3800 ± 2000 nM
activity in follicular lymphoma model (RS11380): significant activity
EC50 (NCI-H226): 2600 ± 1100 nM
EC50 (OVCAR-5): 1100 nM
tumor regression, combination with Rituxin® [2, 3]: complete regression of a significant percentage of established DoHH2 follicular lymphoma flank tumors
tumor regression, combination with rapamycin [2, 3]: complete regression of a significant percentage of established DoHH2 follicular lymphoma flank tumors
tumor growth ([2]; model of follicular lymphoma (DOHH-2)): inhibited tumor growth
EC50 (MCF7): 2000 ± 800 nM
EC50 (HOP-62): 6300 ± 6700 nM
EC50 (SF-268): 8300 ± 400 nM
EC50 (PC3): 960 ± 380 nM
EC50 (KM12): 1700 ± 200 nM
EC50 (HT-29): 1100 ± 1100 nM
tumor regression (H146; H146 model, in some cases tumor disappearance after prolonged therapy): complete regression of an established tumor
anti-tumor activity (H146; H146 murine model, human-derived small cell lung cancer): demonstrated anti-tumor activity
EC50 (MDA-MB-436): 3900 ± 2600 nM
EC50 (COLO 205): 510 ± 70 nM
EC50 (DLD-1): 990 ± 450 nM
EC50 (OVCAR-3): 1900 ± 300 nM
EC50 (D54MG): 3100 ± 2500 nM
